Where two headings read alike, the source gives them in different places.
Key:
TZM-bl cells = settings: uninfected TZM-bl cells, NA = no cytotoxicity at the test concentration
HIV-1 NL4-3 virus = assay: Anti-HIV-1 activity, multicycle assay with HIV-1 NL4-3 in TZM-bl cells; format: cell-based; settings: for anti-HIV-1 activity (in words): at the test concentration
[1] = measured by HPLC
HIV-1 CA monomer = HIV-1 CA monomer (Human immunodeficiency virus type 1 group M subtype B, UniProt P12493); assay: biochemical; format: binding, HIV-1 NL4-3
in vitro = settings: human
[2] = Table 2, HIV-1 NL4-3, TZM-bl cells, NA = no anti-HIV-1 activity at the test concentration

Compound | EC50 (HIV-1 NL4-3 virus; [2]) [µM] | CC50 (TZM-bl cells; Table 2) [µM] | anti-HIV-1 activity (in words) (HIV-1 NL4-3 virus; TZM-bl cells) | further results
Methyl (S)-4-(4-((3-(3,5-difluorophenyl)-1-((4-methoxyphenyl)(methyl)amino)-1-oxopropan-2-yl)carbamoyl)-1H-1,2,3-triazol-1-yl)benzoate [I-8p] | – | – | – | CC50 (TZM-bl cells; Table 1): > 18.2 µM; EC50 (HIV-1 NL4-3 virus; Table 1, HIV-1 NL4-3, TZM-bl cells, NA = no anti-HIV-1 activity at the test concentration): 14.2 ± 3.46 µM
(S)-N-(3-(3,5-Difluorophenyl)-1-((4-methoxyphenyl)(methyl)amino)-1-oxopropan-2-yl)-3-(1-(quinolin-2-yl)-1H-1,2,3-triazol-4-yl)benzamide [II-10i] | 21.5 ± 4.53 | > 32.3 | exhibited anti-HIV-1 activity at the test concentration | –
COc1ccc(N(C)C(=O)[C@H](Cc2cc(F)cc(F)c2)NC(=O)c2cccc(-c3cn(Cc4ccc([N+](=O)[O-])cc4)nn3)c2)cc1 [II-10c, (S)-N-(3-(3,5-Difluorophenyl)-1-((4-methoxyphenyl)(methyl)amino)-1-oxopropan-2-yl)-3-(1-(4-nitrobenzyl)-1H-1,2,3-triazol-4-yl)benzamide] | – | – | exhibited anti-HIV-1 activity at the test concentration | Kd (HIV-1 CA monomer): 2.2 ± 0.23 µM; Papp A→B (in vitro; Caco-2, pH 7.4, Mean Papp A to B, Caco-2, 2 μM, 2 hours, pH 7.40): < 0.01 ×10⁻⁶ cm/s; Papp A→B (in vitro; Caco-2, pH 7.4, Rank Papp, Caco-2, A to B, permeability class): < 0.5 ×10⁻⁶ cm/s; Papp A→B (in vitro; Caco-2, pH 7.4, apparent permeability (Papp), Caco-2 cells): < 0.01 ×10⁻⁶ cm/s; EC50 (HIV-1 NL4-3 virus; Human immunodeficiency virus 1, NL43, TZM-bl): 2.13 ± 0.75 µM; SI (selectivity index, ratio of CC50/EC50) (HIV-1 NL4-3 virus; Table 2, TZM-bl cells): >16.66
N-((S)-3-(3,5-Difluorophenyl)-1-((4-methoxyphenyl)(methyl)amino)-1-oxopropan-2-yl)-3-(1-(2-(hydroxymethyl)-5-(5-methyl-2,6-dioxo-1,2,3,6-tetrahydropyridin-3-yl)tetrahydrofuran-3-yl)-1H-1,2,3-triazol-4-yl)benzamide [II-10o] | > 27.9 | > 27.9 | – | –

Now from value to compound, other results behind:

EC50 (HIV-1 NL4-3 virus; [2]) [µM] | Compound | CC50 (TZM-bl cells; Table 2) [µM] | anti-HIV-1 activity (in words) (HIV-1 NL4-3 virus; TZM-bl cells) | further results
9.37 ± 3.18 | (S)-N-(1-((4-Methoxyphenyl)(methyl)amino)-1-oxo-3-phenylpropan-2-yl)-3-(1-(3-(thiophen-3-yl)propyl)-1H-1,2,3-triazol-4-yl)benzamide [III-15h] | > 35.4 | exhibited anti-HIV-1 activity at the test concentration | log P [1]: 2.36
> 29.4 | 3-(1-(2-(Hydroxymethyl)-5-(5-methyl-2,6-dioxo-1,2,3,6-tetrahydropyridin-3-yl)tetrahydrofuran-3-yl)-1H-1,2,3-triazol-4-yl)-N-((S)-1-((4-methoxyphenyl)(methyl)amino)-1-oxo-3-phenylpropan-2-yl)benzamide [III-15o] | > 29.4 | – | –
> 36 | Ethyl (S)-2-(4-(3-((1-((4-methoxyphenyl)(methyl)amino)-1-oxo-3-phenylpropan-2-yl)carbamoyl)phenyl)-1H-1,2,3-triazol-1-yl)acetate [III-15n] | > 36 | lost anti-HIV-1 activity completely | –
